Measured values from patent US9353089B2, “Compositions and methods for the treatment of malaria” (Saint Louis University, priority 2013, dated 2016).
pIC50: −log10 of the molar value. Like-named read-outs stand apart in the source and are kept apart here. Non-standard residues stand in square brackets, D forms with d. Residues, ends and D or L forms follow the SMILES beside them. *: point of attachment. Sta = CC(C)C[C@H](N)[C@@H](O)CC(=O)O; Isovaleryl = CC(C)CC(=O)*

Legend:
Plasmepsin V (PM-V) = Plasmepsin V (PM-V) (Plasmodium falciparum (isolate 3D7), UniProt Q8I6Z5); settings: known inhibitors, background; cited from earlier work
[1] = system: Plasmodium chabaudi ASS and ASCQ strains; test: In vivo antimalarial efficacy 4-day suppressive test; settings: NIH mice, 4.5 mpk orally once daily for four days, Day 4 postinoculation
Protocol: Briefly, NIH mice (n=8 per group) were inoculated i.p. with 2×10^7 parasitized (Plasmodium chabaudi ASS or ASCQ) red blood cells. […] Groups (n=6) including a vehicle control and chloroquine (CQ) as a reference drug were included. Parasitemia levels were determined on the day following the last treatment (Day 4).

[2] = target: Plasmepsin-2 (PM-2; Plm II) (Plasmodium falciparum (isolate HB3), UniProt P46925); test: Plasmepsin-2 enzyme inhibition assay; format: biochemical
Sequence of Plasmepsin-2 (PM-2; Plm II) (P46925 125-453 limits assumed): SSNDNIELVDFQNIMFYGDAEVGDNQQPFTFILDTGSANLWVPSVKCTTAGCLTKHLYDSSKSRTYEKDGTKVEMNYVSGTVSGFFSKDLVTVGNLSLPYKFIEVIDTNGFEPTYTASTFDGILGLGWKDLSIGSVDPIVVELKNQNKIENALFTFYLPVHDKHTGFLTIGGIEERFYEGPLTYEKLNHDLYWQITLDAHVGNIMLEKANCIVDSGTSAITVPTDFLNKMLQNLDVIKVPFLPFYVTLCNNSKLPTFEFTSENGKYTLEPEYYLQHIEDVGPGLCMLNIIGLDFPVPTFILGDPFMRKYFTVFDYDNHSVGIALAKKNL
How it was run: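 Enzymes activated in pH 4.5 citrate/DTT buffer, then assayed in 50 mM sodium acetate pH 4.7, 0.01% Tween-20. Compounds added before fluorogenic peptide substrate (final 20 µM); 60 min at room temperature, fluorescence Ex/Em 360/535 nm, IC50 by curve fit.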

[3] = system: Plasmodium falciparum Dd2 (multi-drug resistant); test: In vitro antimalarial assay (malaria SYBR Green I-based fluorescence, MSF), Dd2; format: cell-based; settings: DD2, read-out: Dd2 IC50 (μM)
Protocol: In vitro antimalarial activity was determined by a malaria SYBR Green I-based fluorescence (MSF) method described previously by Smilkstein et al. (2004, which is incorporated herein by reference) with slight modification (Winter, et al., 2006, which is incorporated herein by reference). Stock solutions of each test drug were prepared in DMSO at a concentration of 20 mM. The drug solutions were serially diluted with culture medium and distributed to asynchronous parasite cultures on 96-well plates in quadruplicate in a total volume of 100 μL to achieve 0.5% parasitemia with a 2% hematocrit in a total volume of 100 pt. The plates were then incubated for 72 h at 37° C. After incubation, 100 μL of lysis buffer with 0.2 μL/mL SYBR Green I was added to each well. The plates were incubated at 37° C. for an hour in the dark and then placed in a 96-well fluorescence plate reader (Spectramax Gemini-EM; Molecular Diagnostics) with excitation and emission wavelengths at 497 nm and 520 nm, respectively, for measurement of fluorescence.
Antimalarial potency of compounds was determined by this technique for both Plasmodium falciparum 3D7 (CQ-sensitive) and Dd2 (multi-drug resistant) strains.

recombinant human BACE1 [4] = target: recombinant human BACE1 (Homo sapiens, UniProt P56817); test: β-Secretase (BACE1) enzyme inhibition FRET assay; format: biochemical
Sequence of recombinant human BACE1 (Homo sapiens, UniProt P56817) (P56817 46-501 limits assumed): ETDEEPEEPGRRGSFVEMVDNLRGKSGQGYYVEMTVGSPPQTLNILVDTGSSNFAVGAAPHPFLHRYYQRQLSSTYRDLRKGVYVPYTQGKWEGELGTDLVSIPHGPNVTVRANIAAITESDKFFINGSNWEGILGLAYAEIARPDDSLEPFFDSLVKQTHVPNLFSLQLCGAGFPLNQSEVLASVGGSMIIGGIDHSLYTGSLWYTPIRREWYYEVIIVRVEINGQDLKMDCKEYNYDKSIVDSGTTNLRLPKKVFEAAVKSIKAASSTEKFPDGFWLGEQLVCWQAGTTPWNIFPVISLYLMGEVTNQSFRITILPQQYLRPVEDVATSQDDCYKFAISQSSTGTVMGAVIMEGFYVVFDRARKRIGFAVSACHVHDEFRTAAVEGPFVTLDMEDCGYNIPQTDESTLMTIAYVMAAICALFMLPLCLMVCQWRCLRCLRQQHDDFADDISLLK
Protocol: (§1) The enzymatic inhibition activity assays were determined using the fluorescence resonance energy transfer (FRET) assay. The assays were performed in a 384-well plate format. […] CatD and CatE were activated by incubation in assay buffer (0.1 M NaOAc, 0.2 M NaCl, pH 3.5) at room temperature for 30 min. Subsequently, the rhBACE-1 substrate (R&D Systems, catalog# ES004), the Cathepsin D and Cathepsin E substrate (R&D Systems, Catalog # ES001) were added accordingly to final concentration 20 μM to initiate the reaction. After 60 min incubation at room temperature, the time-resolved fluorescence at Ex/Em=360 nm/460 nm was measured on an EnVision multilabel plate reader (Perkin-Elmer). The analytical software, GraphPad Prism 5.0 (GraphPad Software, Inc., USA) was used to generate IC50 values via non-linear regression analysis, which are reported in Tables 8-13 below as BACE1 IC50 values.

[5] = system: Plasmodium falciparum 3D7 (CQ-sensitive); test: In vitro antimalarial assay (malaria SYBR Green I-based fluorescence, MSF), 3D7; format: cell-based
How it was run: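 Asynchronous P. falciparum 3D7 cultures (0.5% parasitemia, 2% hematocrit) were exposed to serially diluted compounds, in quadruplicate. Growth was then quantified by SYBR Green I fluorescence after adding lysis buffer containing 0.2 μL/mL dye.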

recombinant human BACE1 [6] = test: β-Secretase (BACE1) enzyme inhibition FRET assay; format: biochemical
Protocol: as §1

[7] = target: recombinant human Cathepsin E (Homo sapiens (Human), UniProt P14091); test: Cathepsin E enzyme inhibition FRET assay; format: biochemical; settings: Table 8; read-out: CatE IC50
Sequence of recombinant human Cathepsin E (P14091 54-396): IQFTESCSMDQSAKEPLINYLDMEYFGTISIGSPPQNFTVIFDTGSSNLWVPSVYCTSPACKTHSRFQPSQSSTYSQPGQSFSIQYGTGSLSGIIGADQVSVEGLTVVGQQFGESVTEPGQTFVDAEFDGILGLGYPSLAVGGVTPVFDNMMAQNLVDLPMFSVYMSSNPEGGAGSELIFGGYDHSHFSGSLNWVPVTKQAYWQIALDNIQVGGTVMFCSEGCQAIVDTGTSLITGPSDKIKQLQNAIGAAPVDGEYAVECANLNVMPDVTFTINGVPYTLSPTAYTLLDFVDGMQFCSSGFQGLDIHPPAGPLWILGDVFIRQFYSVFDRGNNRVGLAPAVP
Protocol: (§2) The enzymatic inhibition activity assays were determined using the fluorescence resonance energy transfer (FRET) assay. The assays were performed in a 384-well plate format. […] The concentration of Cathepsin D was 20 ng/μL, and 1 ng/μL of Cathepsin E was used. CatD and CatE were activated by incubation in assay buffer (0.1 M NaOAc, 0.2 M NaCl, pH 3.5) at room temperature for 30 min. Subsequently, the rhBACE-1 substrate (R&D Systems, catalog# ES004), the Cathepsin D and Cathepsin E substrate (R&D Systems, Catalog # ES001) were added accordingly to final concentration 20 μM to initiate the reaction. After 60 min incubation at room temperature, the time-resolved fluorescence at Ex/Em=360 nm/460 nm was measured on an EnVision multilabel plate reader (Perkin-Elmer). The analytical software, GraphPad Prism 5.0 (GraphPad Software, Inc., USA) was used to generate IC50 values via non-linear regression analysis, which are reported in Tables 8-13 below as BACE1 IC50 values.

[8] = target: Plasmepsin (PM-4; Plm IV) (Plasmodium falciparum (isolate 3D7), UniProt Q8IM16); test: Plasmepsin-4 enzyme inhibition assay; format: biochemical; settings: Table 8
Sequence of Plasmepsin (PM-4; Plm IV) (Q8IM16 122-449 limits assumed): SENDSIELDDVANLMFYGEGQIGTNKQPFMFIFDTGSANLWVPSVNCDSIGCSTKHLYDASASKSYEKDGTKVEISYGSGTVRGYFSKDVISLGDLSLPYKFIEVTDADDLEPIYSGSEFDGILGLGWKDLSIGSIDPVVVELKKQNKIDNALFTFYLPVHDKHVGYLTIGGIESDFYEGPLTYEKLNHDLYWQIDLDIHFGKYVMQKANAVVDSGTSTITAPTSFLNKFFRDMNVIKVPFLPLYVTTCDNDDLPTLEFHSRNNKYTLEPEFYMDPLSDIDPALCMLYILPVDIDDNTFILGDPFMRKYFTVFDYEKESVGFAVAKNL
Protocol: Plasmepsin-2 (PM-2; Plm II) and Plasmepsin (PM-4; Plm IV) expression and purification was performed following the published protocols (Istvan E S and Goldberg D E, 2005). The final purified protein was activated by diluting the protein to 0.3 mg/mL in activating buffer (0.1 M citrate pH 4.5, 0.1% Tween-20, 50 mM dithiothreitol) and incubated at room temperature for 40 min, then the activated enzyme was diluted in assay buffer (50 mM sodium acetate pH 4.7, 0.01% Tween-20). The enzymatic inhibition reaction was performed in 384 well plates with a total volume of 20 μl. 10 μl of diluted PM-2 or PM-4 enzyme was added to the 384-well plate except blank wells (blank wells add 10 μL of assay buffer) and 20 nL of serials of diluted 1000× compounds were added to the wells with 520 Echo® Liquid Handling System (Labcyte Inc.). 10 μL PM-2 peptide substrate (AnaSpec, Cat#, 62050) with assay buffer was then added to final concentration of 20 μM to start the reaction. After incubation the reaction at room temperature for 60 min, the fluorescence intensity at Ex/Em=360 nm/535 nm was measured using EnVision multilabel plate reader (Perkin-Elmer). The IC50 values were obtained using Graph Pad Prism 4 and are reported in Tables 8 and 9 below as PM-2 IC50 values.

[9] = target: recombinant human Cathepsin D (Homo sapiens (Human), UniProt P07339); test: Cathepsin D enzyme inhibition FRET assay; format: biochemical
Sequence of recombinant human Cathepsin D (P07339 65-412): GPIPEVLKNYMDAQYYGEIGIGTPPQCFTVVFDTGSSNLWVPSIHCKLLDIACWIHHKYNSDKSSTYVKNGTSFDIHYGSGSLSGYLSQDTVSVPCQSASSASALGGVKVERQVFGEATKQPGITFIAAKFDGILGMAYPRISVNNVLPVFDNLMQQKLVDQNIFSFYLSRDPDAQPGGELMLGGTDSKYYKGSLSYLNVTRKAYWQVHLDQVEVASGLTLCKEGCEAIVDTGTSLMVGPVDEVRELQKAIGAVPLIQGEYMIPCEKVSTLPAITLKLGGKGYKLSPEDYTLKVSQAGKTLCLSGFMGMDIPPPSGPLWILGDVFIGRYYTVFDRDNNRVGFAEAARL
Protocol: as §2

[10] = 3D7, read-out: 3D7 IC50 (μM), Table 13

## CC(C)CC(=O)N[C@H](C(=O)N[C@H](C(=O)N[C@@H](CC(C)C)[C@@H](O)CC(=O)N[C@@H](C)C(=O)N[C@@H](CC(C)C)[C@@H](O)CC(=O)O)C(C)C)C(C)C [pepstatin A] (Isovaleryl-VV[Sta]A[Sta]-OH)
Plasmepsin V (PM-V)
  pIC50: < 4.70

## Cc1cccc(C)c1OCC(=O)N[C@@H](Cc1ccccc1)[C@@H](O)C[C@H](Cc1ccccc1)NC(=O)[C@H](C(C)C)N1CCCNC1=O [lopinavir]
Plasmepsin V (PM-V)
  pIC50: < 4.70

## CCN(CC)CCCC(C)Nc1ccnc2cc(Cl)ccc12 (stereo not drawn) [CQ, chloroquine, reference compound]
[1]
  % Inhibition of parasitemia: 99.99%

## COc1ccc(C2(c3ccc(OC)cc3)NC(=N)N(CC3CCCCC3)C2=O)cc1 [Example 221, 3-(cyclohexylmethyl)-2-imino-5,5-bis(4-methoxyphenyl)-imidazolidin-4-one]
[2]; Table 13, read-out: PM-2 IC50
  pIC50: 8.62
[3]
  IC50: 0.367 µM
Recombinant human BACE1 [4]; Table 13, read-out: BACE1 IC50
  pIC50: 5.22
[5]; [10]
  IC50: 0.207 µM
[5]; 3D7, read-out: Pf3D7 IC50 (μM), Table 10
  IC50: 0.383 µM

## N=C1NC(c2ccccc2)(c2cccc(-c3cccnc3)c2)C(=O)N1C1CCCCC1 (stereo not drawn) [Example 136, 3-cyclohexyl-2-imino-5-phenyl-5-[3-(pyridin-3-yl)-phenyl]imidazolidin-4-one]
[2]; Table 8, read-out: PM-II IC50
  pIC50: 7.89
[2]; Table 12, read-out: PM-2 IC50
  pIC50: 7.89
[2]; Table 13, read-out: PM-2 IC50
  pIC50: 7.89
Recombinant human BACE1 [4]; Table 8, read-out: BACE IC50
  pIC50: 5.77
Recombinant human BACE1 [4]; Table 12, read-out: BACE1 IC50
  pIC50: 4.74
Recombinant human BACE1 [4]; Table 13, read-out: BACE1 IC50
  pIC50: 4.74
Recombinant human BACE1 [6]
  selectivity for PM-II over BACE: > 1000 fold
Recombinant human BACE1 [6]; ratio of BACE1 IC50 to PM-2 IC50
  BACE1/PM2 Ratio: 1392
[7]
  pIC50: < 5.00
[8]
  pIC50: 7.51
[5]; 3D7, read-out: 3D7 IC50 (μM), Table 12
  IC50: 0.75 µM
[5]; [10]
  IC50: 0.75 µM
[5]; 3D7, read-out: Pf 3D7 IC50 (μM), Table 11
  IC50: 0.75 µM
[5]; 3D7, read-out: Pf 3D7 IC50, Table 8
  pIC50: 6.12
[9]
  selectivity for PM-II over CatD: > 1000 fold
[9]; Table 8, read-out: CatD IC50
  pIC50: < 5.00
